From ChEMBL document CHEMBL3797142, “The self-assembly of a camptothecin-lysine nanotube” (Bioorg Med Chem Lett, 2016)
Values after ≈ are worked out from the molar mass of the structure shown.

Columns and labels:
[1] = Solubility of the compound in water; assay type: physicochemical
[2] = Drug level in pH 7.4 PBS treated with camptothecin-lysine at 1 mM at 37 degC after 3 days by RP-HPLC analysis; assay type: physicochemical; details: buffer, pH 7.4, 72 h, 1000 µM
[3] = Drug level in pH 7.4 PBS treated with camptothecin-lysine nanotube at 37 degC after 1 week by RP-HPLC analysis; assay type: physicochemical; details: buffer, pH 7.4, 168 h
[4] = system: A549; assay: Cytotoxicity against human A549 cells assessed as cell viability after 96 hrs by MTT assay; assay type: functional, cell-based; details: A549, 96 h
[5] = system: NCI-H460; assay: Cytotoxicity against human NCI-H460 cells assessed as cell viability after 96 hrs by MTT assay; assay type: functional, cell-based; details: NCI-H460, 96 h
[6] = system: NCI-H23; assay: Cytotoxicity against human NCI-H23 cells assessed as cell viability after 96 hrs by MTT assay; assay type: functional, cell-based; details: NCI-H23, 96 h
[7] = system: A549; assay: Drug uptake in human A549 cells at 10 mM after 12 to 24 hrs by flow cytometric method; assay type: ADME, cell-based; details: a549, 10000 µM
[8] = system: A549; assay: Drug uptake in human A549 cells at 10 mM after 8 hrs by flow cytometric method; assay type: ADME, cell-based; details: a549, 8 h, 10000 µM
[9] = Drug level in pH 7.4 PBS treated with camptothecin-lysine at 0.1 mM at 37 degC after 15 hrs by RP-HPLC analysis; assay type: physicochemical; details: buffer, pH 7.4, 15 h, 100 µM
[10] = Drug level in pH 6 PBS treated with camptothecin-lysine at 0.1 mM at 37 degC after 15 hrs by RP-HPLC analysis; assay type: physicochemical; details: buffer, pH 6, 15 h, 100 µM
[11] = Drug level in pH 9 borate buffer treated with camptothecin-lysine at 1 mM at 37 degC by RP-HPLC analysis; assay type: physicochemical; details: pH 9, 1000 µM
[12] = Solubility of the compound in pH 7.4 PBS; assay type: physicochemical
[13] = Induction of self assembly in pH 7.4 PBS assessed as diameter of nanotube at 1 mM after 72 hrs by transmission electron microscopy; assay type: physicochemical; details: buffer, pH 7.4, 72 h, 1000 µM
[14] = Induction of self assembly in pH 7.4 PBS assessed as diameter of nanotube at 10 mM after 24 hrs by transmission electron microscopy; assay type: physicochemical; details: buffer, pH 7.4, 24 h, 10000 µM
[15] = Critical aggregation concentration of the compound in pH 7.4 PBS by Nile Red dye based luminescence spectrometric method; assay type: ADME; details: buffer
[16] = Critical aggregation concentration of the compound in water by Nile Red dye based luminescence spectrometric method; assay type: ADME; details: buffer
[17] = Induction of self assembly in water at pH 7 assessed as diameter of nanotube at 1 mM after 72 hrs by transmission electron microscopy; assay type: physicochemical; details: buffer, pH 7, 72 h, 1000 µM
[18] = Induction of non specific self aggregation in pH 7.4 PBS at 250 uM; assay type: physicochemical; details: buffer, pH 7.4, 250 µM
[19] = Induction of J-type self aggregation in pH 7.4 PBS at 250 uM after 3 days by UV-Vis spectrometry; assay type: physicochemical; details: buffer, pH 7.4, 72 h
[20] = Drug metabolism in pH 7.4 PBS assessed as remaining parent compound level at 1 mM at 37 degC after 3 days by RP-HPLC analysis; assay type: physicochemical; details: read-out: Stability
[21] = Induction of self assembly in pH 7.4 PBS assessed as thickness of nanotube walls at 1 mM after 72 hrs by transmission electron microscopy; assay type: physicochemical; details: buffer, pH 7.4, 72 h, 1000 µM
[22] = Induction of self assembly in pH 7.4 PBS assessed as zeta potential of nanotube at 1 mM after 1 day; assay type: physicochemical; details: buffer, pH 7.4, 24 h, 1000 µM
[23] = Induction of self assembly in pH 7.4 PBS assessed as beta-sheet interaction within assembly at 20 mM lyophilized for 3 days followed by redissolved in D2O by fourier transform infrared spectroscopic method; assay type: physicochemical; details: buffer, pH 7.4, 72 h, 20000 µM

Compound: CC[C@@]1(O)C(=O)OCc2c1cc1n(c2=O)Cc2cc3ccccc3nc2-1 [CAMPTOTHECIN]
- solubility [1]: 3 µg/mL (≈ 0.00861 mM)
- Drug metabolism [2]: metabolite_detected
- Drug metabolism [3]: metabolite_detected
- IC50 [4]: 0.35 µM
- IC50 [5]: 0.19 µM
- IC50 [6]: 0.07 µM
- Drug uptake [7]: Active
- Drug uptake [8]: Active
- Drug metabolism [9]: metabolite_detected
- Drug metabolism [10]: metabolite_detected

Compound: CC[C@@](O)(C(=O)O)c1cc2n(c(=O)c1CO)Cc1cc3ccccc3nc1-2
- Drug metabolism [11]: metabolite_detected
- Drug metabolism [2]: metabolite_detected
- Drug metabolism [3]: metabolite_detected

Compound: CC[C@@]1(OC(=O)CCC(=O)NCCCC[C@H](N)C(N)=O)C(=O)OCc2c1cc1n(c2=O)Cc2cc3ccccc3nc2-1
- solubility [12]: 5140 µg/mL (≈ 8.93 mM)
- solubility [1]: 12100 µg/mL (≈ 21 mM)
- Activity [13]: 70 nm
- Activity [14]: < 500 nm
- CAC [15]: 160 µM
- CAC [16]: 200 µM
- Activity [17]: 40 nm
- Activity [18]: Active
- Activity [19]: Active
- remaining at 72 h, 1000 µM [20]: 39%
- Activity [21]: 7.5 nm
- Activity [22]: 19.7 mV
- Activity [23]: Not Active
- IC50 [4]: 1.12 µM
- IC50 [5]: 0.43 µM
- IC50 [6]: 0.12 µM
- Drug uptake [8]: Active
